Measured values: paper PMC10661773, “Cytotoxic pathways activated by multifunctional thiosemicarbazones targeting sigma-2 receptors in breast and lung carcinoma cells” (Pharmacological Reports, 2023)

Legend:
[1] = molecular target: T1, P-gp (Homo sapiens, UniProt P08183); test: P-gp activity, Calcein-AM assay in MDCK-MDR1 cells; format: cell-based; details: read-out: P-gp Activity EC50 ± SEM
T1 construct: expressed in transfected cells; host or cells: MDCK-MDR1
Experimental: According to a previously reported procedure, MDCK-MDR1 cell lines (50,000 cells per well) were seeded into black CulturePlate 96/wells plate with […] medium and grown overnight to confluence. Aliquots (100 µL) of tested compounds in culture medium, at scalar concentrations ranging from 0,1 to 100 µM, were added to each well. The plate was incubated at 37 °C for 30 min, Calcein-AM in phosphate buffered saline (PBS, […]) was added to each well at a final concentration of […], and the plate was incubated for 30 min. The plate was washed 3 times with […] ice cold PBS, Saline buffer ([…]) was added to each well and the plate was read by a PerkinElmer Victor3 spectrofluorimeter at excitation and emission wavelengths of 485 nm and 535 nm, respectively. Under these conditions, calcein cell accumulation in the absence and in the presence of tested compounds was evaluated, and a fluorescence basal level was estimated by untreated cells. In treated wells, the increase of fluorescence with respect to the basal level was measured, EC50 values were determined by fitting the fluorescence increase percentage versus log[dose] with GraphPad Prism Software 5,0 (GraphPad Software, Inc,: San Diego, CA).

[2] = test system: caspase 3 in A549 cells; test: Caspase 3 activity, fluorimetric; format: cell-based, human; details: A549, 2 h, 50 µM
Experimental: (§1) Activation of caspase 3, caspase 7 and caspase 9 was measured using the Caspase 3/7 Fluorescence Assay kit (Cayman Chemical, Ann Arbor, MI; #10,009,135) and the Caspase 9 fluorimetric assay kit (Enzo Life Science, Roma, Italy; #ALX-850-224). The results were expressed as nmoles of the hydrolyzed substrate of each caspase/mg cellular proteins, according to a previously set titration curve.

[3] = test system: caspase 3 in MCF7 cells; test: Caspase 3 activity, fluorimetric; format: cell-based, human; details: MCF7, 2 h, 50 µM
Experimental: as §1

[4] = test system: caspase 7 in A549 cells; test: Caspase 7 activity, fluorimetric; format: cell-based, human; details: A549, 2 h, 50 µM
Experimental: as §1

[5] = test system: caspase 7 in MCF7 cells; test: Caspase 7 activity, fluorimetric; format: cell-based, human; details: MCF7, 2 h, 50 µM
Experimental: as §1

[6] = test system: caspase 9 in A549 cells; test: Caspase 9 activity, fluorimetric; format: cell-based, human; details: A549, 2 h, 50 µM
Experimental: as §1

[7] = test system: caspase 9 in MCF7 cells; test: Caspase 9 activity, fluorimetric; format: cell-based, human; details: MCF7, 2 h, 50 µM
Experimental: as §1

[8] = test system: GRP78, ATF6, IRE1, PERK in A549 cells; test: ER stress markers, qRT-PCR and immunoblotting; format: cell-based, human; details: A549, 2 h, 50 µM
Experimental: (§2) 1 μg total RNA was reverse-transcribed using the iScript Reverse Transcription Supermix kit (Bio-Rad Laboratories, Hercules, CA; #1,708,840), according to the manufacturer’s instruction. 25 ng cDNA were amplified with 10 μL IQ™ SYBR Green Supermix (Bio-Rad Laboratories, # 1708880B05). Primers were designed with the qPrimer Depot software (http://primerdepot.nci.nih.gov/). qRT-PCR was carried out with a CFX96™ Real-Time Detector System (Bio-Rad Laboratories). Cycling conditions were: 30 s at 95 °C, followed by 40 cycles of denaturation (15 s at 95 °C), annealing/extension (30 s at 60 °C). The same cDNA preparation was used to quantify the genes of interest and the housekeeping gene S14, used to normalize gene expression. The relative quantitation of each sample was carried out using the Gene Expression Quantitation software (Bio-Rad Laboratories). Results were expressed in arbitrary units. For each gene, the expression in untreated cells was assumed to be “1”.
(§3) Cells were rinsed with ice-cold lysis buffer (50 mM, Tris, 10 mM EDTA, 1% v/v Triton-X100), supplemented with the protease inhibitor cocktail set III (80 μM aprotinin, 5 mM bestatin, 1.5 mM leupeptin, 1 mM pepstatin; Sigma, # 535,140), 2 mM phenylmethylsulfonyl fluoride (Sigma: #P7626) and 1 mM Na3VO4, (Sigma; #S6508) then sonicated and centrifuged at 13,000 × g for 10 min at 4 °C. 20 μg protein extracts were subjected to SDS–PAGE and probed with the antibodies for: GRP78 (#ab21685), ATF6 (#ab122897), IRE-1 (#ab37073), PERK (#ab65142), actin (#ab1801) (all from Abcam, Cambridge, UK), followed by a peroxidase-conjugated secondary antibody (Bio-Rad Laboratories). The membranes were washed with Tris-buffered saline-Tween 0.1% v/v solution, and the proteins were detected by enhanced chemiluminescence (Bio-Rad Laboratories, #1,705,061). The densitometric analysis was performed using the ImageJ software (https://imagej.nih.gov/), calculating the ratio protein of interest/actin band density, putting actin band density as 1 relative unit in each condition. Densitometric analysis and whole blots are included as Supporting Information.

[9] = test system: GRP78, ATF6, IRE1, PERK in MCF7 cells; test: ER stress markers, qRT-PCR and immunoblotting; format: cell-based, human; details: MCF7, 2 h, 50 µM
Experimental: as §2, §3

[10] = test system: A549 cells; test: Mitochondrial ROS, MitoSOX staining; format: cell-based, human; details: A549, 2 h, 50 µM
Experimental: (§4) Intramitochondrial reactive oxygen species (ROS) were measured using the MitoSOX fluorescent probe (Invitrogen ThermoScientific, # M36008), according to the manufacturer’s instructions. For total ROS, cells were incubated with 5 µmol/L of 5-(and-6)-chlorometyl-20,70-dichlorodihydro-fluorescein diacetate-acetoxymethyl ester (DCFDA-AM, Sigma, #21,884), as described by Riganti et al. 2015 [21]. The results are expressed as nmoles/mg mitochondrial or cellular proteins, respectively.

[11] = test system: MCF7 cells; test: Mitochondrial ROS, MitoSOX staining; format: cell-based, human; details: MCF7, 2 h, 50 µM
Experimental: as §4

[12] = test system: MCF7 and A549 cells; test: Whole cell ROS, DCFDA-AM probe; format: cell-based, human; details: MCF7 and A549, 2 h, 50 µM
Experimental: as §4

[13] = molecular target: sigma-2 receptors (Homo sapiens, UniProt Q5BJF2); details: read-out: Sigma-2 Affinity Ki; cited from earlier work
Sequence of sigma-2 receptors (Q5BJF2 whole entry): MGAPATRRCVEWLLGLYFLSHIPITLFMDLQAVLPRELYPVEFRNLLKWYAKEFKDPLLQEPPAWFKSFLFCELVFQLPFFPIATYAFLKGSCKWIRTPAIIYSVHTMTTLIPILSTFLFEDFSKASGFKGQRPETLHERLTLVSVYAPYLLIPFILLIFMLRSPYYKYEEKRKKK

T1 sequence (P08183 whole entry): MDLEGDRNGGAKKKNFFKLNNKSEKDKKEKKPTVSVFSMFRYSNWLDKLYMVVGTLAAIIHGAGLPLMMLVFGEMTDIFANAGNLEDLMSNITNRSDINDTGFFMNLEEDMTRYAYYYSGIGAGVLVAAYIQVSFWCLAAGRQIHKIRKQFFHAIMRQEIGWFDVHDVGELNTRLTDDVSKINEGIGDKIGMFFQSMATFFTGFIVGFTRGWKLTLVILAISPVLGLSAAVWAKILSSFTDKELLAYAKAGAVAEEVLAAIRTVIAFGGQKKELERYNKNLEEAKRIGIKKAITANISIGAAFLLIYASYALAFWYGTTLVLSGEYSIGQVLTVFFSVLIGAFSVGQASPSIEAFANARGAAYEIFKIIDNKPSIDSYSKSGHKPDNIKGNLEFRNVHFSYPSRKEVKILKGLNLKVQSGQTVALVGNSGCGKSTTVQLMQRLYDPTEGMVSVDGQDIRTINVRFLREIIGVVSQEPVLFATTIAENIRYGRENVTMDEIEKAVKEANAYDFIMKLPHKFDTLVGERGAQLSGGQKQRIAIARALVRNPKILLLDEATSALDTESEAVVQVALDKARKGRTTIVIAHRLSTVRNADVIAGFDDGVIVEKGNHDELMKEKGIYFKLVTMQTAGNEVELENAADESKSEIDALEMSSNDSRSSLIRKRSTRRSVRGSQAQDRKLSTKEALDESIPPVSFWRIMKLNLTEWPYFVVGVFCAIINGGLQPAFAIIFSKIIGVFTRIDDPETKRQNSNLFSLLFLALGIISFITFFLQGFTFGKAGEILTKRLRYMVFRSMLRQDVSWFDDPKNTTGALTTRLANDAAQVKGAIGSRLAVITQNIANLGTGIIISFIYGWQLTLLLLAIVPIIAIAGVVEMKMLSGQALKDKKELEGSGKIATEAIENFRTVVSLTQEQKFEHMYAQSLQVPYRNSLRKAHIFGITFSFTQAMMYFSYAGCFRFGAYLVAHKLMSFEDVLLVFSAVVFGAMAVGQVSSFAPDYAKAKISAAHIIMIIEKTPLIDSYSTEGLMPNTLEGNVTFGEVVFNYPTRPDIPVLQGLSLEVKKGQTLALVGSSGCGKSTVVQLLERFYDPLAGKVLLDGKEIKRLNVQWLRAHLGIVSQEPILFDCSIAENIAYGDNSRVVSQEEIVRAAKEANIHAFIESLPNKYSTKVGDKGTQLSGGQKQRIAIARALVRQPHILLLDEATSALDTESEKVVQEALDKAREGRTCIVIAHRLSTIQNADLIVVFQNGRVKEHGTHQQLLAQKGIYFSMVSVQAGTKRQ

CN(C)C(=S)N/N=C1\C(=O)N(CCCCN2CCC3(CC2)OCc2ccccc23)c2ccccc21 [FA4, (Z)-2-(1-(4-(3H-spiro[isobenzofuran-1,4′-piperidine]-1′-yl)butyl)-2-oxoindolin-3-ylidene)-N,N-dimethylhydrazinecarbothioamide]
EC50 [1]: 3.8 µM
Caspase 3 activation [2]: most potent inducer of caspase 3 in both cell lines
Caspase 3 activation [3]: most potent inducer of caspase 3 in both cell lines
Caspase 7 activation [4]: activate
Caspase 7 activation [5]: activate
Caspase 9 activation [6]: activate
Caspase 9 activation [7]: activate
Rank order of caspase 9 activation [7]: FA4 > MLP44 > PS3 > ACThio1
Expression of ER stress markers GRP78, ATF6, IRE1, PERK [8]: increased
Expression of ER stress markers GRP78, ATF6, IRE1, PERK [9]: increased
Mitochondrial ROS (MitoSOX) [10]: increased
Mitochondrial ROS (MitoSOX) [11]: increased
ROS levels in whole cells (DCFDA-AM) [12]: higher
Ki [13]: 0.0158 µM
